Assay results from article PMC4061319 (Biotechnology for Biofuels, 2014).

Assays:
[1] = target: T1, SdCBP (cellobiose phosphorylase from Saccharophagus degradans) (Saccharophagus degradans, UniProt Q21L49); assay: initial rates of phosphorolysis from continuous G1P colorimetric assay, non-linear regression; format: biochemical; conditions: no xylose; 5 mM inorganic phosphate, 20 mM MES pH 6.0, 30°C, 10 nM enzyme
T1 construct: gene cep94A; CBP is a homodimer

[2] = target: T1, SdCBP (cellobiose phosphorylase from Saccharophagus degradans); assay: competition assay of cellobiose phosphorolysis at […] xylose; format: biochemical; conditions: mixed inhibitor versus cellobiose; 5 mM inorganic phosphate, 20 mM MES pH 6.0, 30°C

T1 sequence (Q21L49 entry or part of it): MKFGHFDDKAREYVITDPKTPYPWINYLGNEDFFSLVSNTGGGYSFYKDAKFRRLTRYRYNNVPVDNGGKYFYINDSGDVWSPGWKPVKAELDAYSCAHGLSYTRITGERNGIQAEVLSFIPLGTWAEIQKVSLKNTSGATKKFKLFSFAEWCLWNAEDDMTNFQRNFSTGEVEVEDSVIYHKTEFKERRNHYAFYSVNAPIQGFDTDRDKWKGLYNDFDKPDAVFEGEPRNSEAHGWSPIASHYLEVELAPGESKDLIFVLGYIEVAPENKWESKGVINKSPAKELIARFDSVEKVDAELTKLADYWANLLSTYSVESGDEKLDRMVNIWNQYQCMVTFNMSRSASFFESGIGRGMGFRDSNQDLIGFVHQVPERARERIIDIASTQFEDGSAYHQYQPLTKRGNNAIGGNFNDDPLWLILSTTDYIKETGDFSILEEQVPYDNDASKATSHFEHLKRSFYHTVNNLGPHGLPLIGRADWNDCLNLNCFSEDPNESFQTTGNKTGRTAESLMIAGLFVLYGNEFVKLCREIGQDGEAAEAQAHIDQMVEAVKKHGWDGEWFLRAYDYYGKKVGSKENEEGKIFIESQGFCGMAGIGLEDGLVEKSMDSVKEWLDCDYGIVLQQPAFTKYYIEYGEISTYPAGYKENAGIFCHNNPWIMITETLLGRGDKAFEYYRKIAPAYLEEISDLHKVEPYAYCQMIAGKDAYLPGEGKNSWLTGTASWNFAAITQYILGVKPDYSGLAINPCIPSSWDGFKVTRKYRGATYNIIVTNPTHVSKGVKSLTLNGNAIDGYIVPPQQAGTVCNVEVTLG

| SMILES | KM,app [1] | competition assay of cellobiose phosphorolysis at 0, 2.5 and 5 mM xylose [2] |
| --- | --- | --- |
| OC[C@H]1O[C@@H](O[C@H]2[C@H](O)[C@@H](O)C(O)O[C@@H]2CO)[C@H](O)[C@@H](O)[C@@H]1O (some centres unmarked) [cellobiose] | Initial rates of cellobiose phosphorolysis were calculated from the amount of G1P produced | – |
| OC1OC[C@@H](O)[C@H](O)[C@H]1O (some centres unmarked) [xylose] | – | identifying xylose as a mixed-inhibitor for the cellobiose phosphorolysis reaction |
